Where “and” joins values, the source holds several entries; their conditions need not be identical. Equal values may be shown once. Toxic doses and inconclusive results are not listed.
Test system: L1210 leukemia ip in BDF1 mice, survival T/C
Experiment: NCI In Vivo Anticancer Drug Screen. Data for tumor model L1210 Leukemia (intraperitoneal) in B6D2F1 (BDF1) mice
Details: higher = longer survival
Outline: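 Tumor cells were implanted, animals were treated, and survival was followed. The result divides the treated measurement by the vehicle-control measurement.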

With `C/C(=N/N=C(N)N)c1ccc(NC(=O)Nc2ccc(/C(C)=N/N=C(N)N)cc2)cc1` the T/C (endpoint: mean survival time, dose: 8.0 mg/kg/injection, schedule: Q03HX016 (ip), vehicle: other) was 159 % of control, the T/C (endpoint: mean survival time, dose: 16.0 mg/kg/injection, schedule: Q01DX005 (ip), vehicle: other) was 179 % of control and the T/C (endpoint: mean survival time, dose: 16.0 mg/kg/injection, schedule: Q01DX009 (ip), vehicle: other) was 236 % of control. For the same compound, the T/C (endpoint: mean survival time, dose: 20.0 mg/kg/injection, schedule: Q01DX005 (ip), vehicle: saline) was 121 % of control, the T/C (endpoint: mean survival time, dose: 32.0 mg/kg/injection, schedule: Q01DX005 (ip), vehicle: other) was 213 % of control and the T/C (endpoint: mean survival time, dose: 32.0 mg/kg/injection, schedule: Q01DX009 (ip), vehicle: other) was 239 % of control. The T/C (endpoint: mean survival time, dose: 32.0 mg/kg/injection, schedule: Q01DX009 (ip), vehicle: water) was 154 % of control and 205 % of control, the T/C (endpoint: mean survival time, dose: 40.0 mg/kg/injection, schedule: Q01DX005 (ip), vehicle: saline) was 159 % of control and the T/C (endpoint: mean survival time, dose: 53.0 mg/kg/injection, schedule: Q01DX009 (ip), vehicle: water) was 218 % of control and 255 % of control. The T/C (endpoint: mean survival time, dose: 64.0 mg/kg/injection, schedule: Q01DX001 (ip), vehicle: other) was 116 % of control, the T/C (endpoint: mean survival time, dose: 64.0 mg/kg/injection, schedule: Q01DX001 (oral), vehicle: other) was 111 % of control and the T/C (endpoint: mean survival time, dose: 64.0 mg/kg/injection, schedule: Q01DX009 (oral), vehicle: other) was 111 % of control. For the same compound, the T/C (endpoint: mean survival time, dose: 64.0 mg/kg/injection, schedule: Q04DX003 (ip), vehicle: other) was 159 % of control, the T/C (endpoint: mean survival time, dose: 64.0 mg/kg/injection, schedule: Q08DX002 (ip), vehicle: other) was 122 % of control and the T/C (endpoint: mean survival time, dose: 80.0 mg/kg/injection, schedule: Q01DX005 (ip), vehicle: saline) was 206 % of control. For the same compound, the T/C (endpoint: mean survival time, dose: 88.0 mg/kg/injection, schedule: Q01DX009 (ip), vehicle: water) was 223 % of control and 251 % of control, the T/C (endpoint: mean survival time, dose: 128.0 mg/kg/injection, schedule: Q01DX001 (oral), vehicle: other) was 101 % of control and the T/C (endpoint: mean survival time, dose: 128.0 mg/kg/injection, schedule: Q01DX009 (oral), vehicle: other) was 106 % of control. For the same compound, the T/C (endpoint: mean survival time, dose: 147.0 mg/kg/injection, schedule: Q01DX009 (ip), vehicle: water) was 323 % of control, the T/C (endpoint: mean survival time, dose: 160.0 mg/kg/injection, schedule: Q01DX005 (ip), vehicle: saline) was 197 % of control and the T/C (endpoint: mean survival time, dose: 245.0 mg/kg/injection, schedule: Q01DX009 (ip), vehicle: water) was 227 % of control. The T/C (endpoint: mean survival time, dose: 256.0 mg/kg/injection, schedule: Q01DX001 (oral), vehicle: other) was 101 % of control, the T/C (endpoint: mean survival time, dose: 256.0 mg/kg/injection, schedule: Q01DX009 (oral), vehicle: other) was 108 % of control and the T/C (endpoint: mean survival time, dose: 320.0 mg/kg/injection, schedule: Q01DX005 (ip), vehicle: saline) was 173 % of control. For the same compound, the T/C (endpoint: mean survival time, dose: 512.0 mg/kg/injection, schedule: Q01DX001 (oral), vehicle: other) was 96 % of control, the T/C (endpoint: mean survival time, dose: 512.0 mg/kg/injection, schedule: Q01DX009 (oral), vehicle: other) was 108 % of control and the T/C (endpoint: mean survival time, dose: 1024.0 mg/kg/injection, schedule: Q01DX001 (oral), vehicle: other) was 97 % of control. The T/C (endpoint: mean survival time, dose: 1024.0 mg/kg/injection, schedule: Q01DX009 (oral), vehicle: other) was 109 % of control, the T/C (endpoint: median survival time, dose: 5.0 mg/kg/injection, schedule: Q03HX024 (ip), vehicle: water) was 152 % of control and the T/C (endpoint: median survival time, dose: 15.0 mg/kg/injection, schedule: Q03HX024 (ip), vehicle: water) was 302 % of control. The T/C (endpoint: median survival time, dose: 30.0 mg/kg/injection, schedule: Q03HX024 (ip), vehicle: water) was 34 % of control and the T/C (endpoint: median survival time, dose: 45.0 mg/kg/injection, schedule: Q03HX024 (ip), vehicle: water) was 31 % of control.
For `C[C@@H](CN1CC(=O)NC(=O)C1)N1CC(=O)NC(=O)C1`, the T/C (endpoint: mean survival time, dose: 25.0 mg/kg/injection, schedule: Q04DX003 (ip), vehicle: saline) was 116 % of control, the T/C (endpoint: mean survival time, dose: 25.0 mg/kg/injection, schedule: Q04DX003 (ip), vehicle: water) was 111 % of control and the T/C (endpoint: mean survival time, dose: 32.0 mg/kg/injection, schedule: Q04DX003 (oral), vehicle: saline) was 117 % of control. For the same compound, the T/C (endpoint: mean survival time, dose: 50.0 mg/kg/injection, schedule: Q04DX003 (ip), vehicle: saline) was 116 % of control, the T/C (endpoint: mean survival time, dose: 50.0 mg/kg/injection, schedule: Q04DX003 (ip), vehicle: water) was 100 % of control and the T/C (endpoint: mean survival time, dose: 64.0 mg/kg/injection, schedule: Q04DX003 (oral), vehicle: saline) was 151 % of control. For the same compound, the T/C (endpoint: mean survival time, dose: 100.0 mg/kg/injection, schedule: Q04DX003 (ip), vehicle: saline) was 115 % of control, the T/C (endpoint: mean survival time, dose: 128.0 mg/kg/injection, schedule: Q04DX003 (oral), vehicle: saline) was 180 % of control and the T/C (endpoint: mean survival time, dose: 256.0 mg/kg/injection, schedule: Q04DX003 (oral), vehicle: saline) was 180 % of control. For the same compound, the T/C (endpoint: mean survival time, dose: 400.0 mg/kg/injection, schedule: Q04DX003 (ip), vehicle: saline) was 150 % of control, the T/C (endpoint: mean survival time, dose: 400.0 mg/kg/injection, schedule: Q04DX003 (ip), vehicle: water) was 158 % of control and the T/C (endpoint: mean survival time, dose: 512.0 mg/kg/injection, schedule: Q04DX003 (oral), vehicle: saline) was 155 % of control. The T/C (endpoint: mean survival time, dose: 800.0 mg/kg/injection, schedule: Q04DX003 (ip), vehicle: saline) was 187 % of control, the T/C (endpoint: median survival time, dose: 8.0 mg/kg/injection, schedule: Q01DX009 (sc), vehicle: saline) was 118 % of control and the T/C (endpoint: median survival time, dose: 8.0 mg/kg/injection, schedule: Q03HX008 (ip), vehicle: saline) was 152 % of control. The T/C (endpoint: median survival time, dose: 8.0 mg/kg/injection, schedule: Q03HX016 (ip), vehicle: saline) was 173 % of control, the T/C (endpoint: median survival time, dose: 8.0 mg/kg/injection, schedule: Q03HX024 (ip), vehicle: saline) was 263 % of control and the T/C (endpoint: median survival time, dose: 16.0 mg/kg/injection, schedule: Q01DX009 (sc), vehicle: saline) was 119 % of control. The T/C (endpoint: median survival time, dose: 16.0 mg/kg/injection, schedule: Q03HX008 (ip), vehicle: saline) was 152 % of control, the T/C (endpoint: median survival time, dose: 16.0 mg/kg/injection, schedule: Q03HX016 (ip), vehicle: saline) was 186 % of control and the T/C (endpoint: median survival time, dose: 16.0 mg/kg/injection, schedule: Q03HX024 (ip), vehicle: saline) was 300 % of control. For the same compound, the T/C (endpoint: median survival time, dose: 32.0 mg/kg/injection, schedule: Q03HX008 (ip), vehicle: saline) was 155 % of control, the T/C (endpoint: median survival time, dose: 32.0 mg/kg/injection, schedule: Q03HX016 (ip), vehicle: saline) was 193 % of control and the T/C (endpoint: median survival time, dose: 32.0 mg/kg/injection, schedule: Q03HX024 (ip), vehicle: saline) was 113 % of control. For the same compound, the T/C (endpoint: median survival time, dose: 64.0 mg/kg/injection, schedule: Q01DX001 (ip), vehicle: saline) was 108 % of control, the T/C (endpoint: median survival time, dose: 64.0 mg/kg/injection, schedule: Q01DX009 (sc), vehicle: saline) was 159 % of control and the T/C (endpoint: median survival time, dose: 64.0 mg/kg/injection, schedule: Q03HX008 (ip), vehicle: saline) was 158 % of control. For the same compound, the T/C (endpoint: median survival time, dose: 64.0 mg/kg/injection, schedule: Q03HX024 (ip), vehicle: saline) was 94 % of control, the T/C (endpoint: median survival time, dose: 64.0 mg/kg/injection, schedule: Q04DX003 (ip), vehicle: saline) was 110 % of control and the T/C (endpoint: median survival time, dose: 64.0 mg/kg/injection, schedule: Q04DX003 (sc), vehicle: saline) was 106 % of control. The T/C (endpoint: median survival time, dose: 64.0 mg/kg/injection, schedule: Q08DX002 (ip), vehicle: saline) was 104 % of control, the T/C (endpoint: median survival time, dose: 128.0 mg/kg/injection, schedule: Q01DX001 (ip), vehicle: saline) was 106 % of control and the T/C (endpoint: median survival time, dose: 128.0 mg/kg/injection, schedule: Q03HX008 (ip), vehicle: saline) was 152 % of control. The T/C (endpoint: median survival time, dose: 128.0 mg/kg/injection, schedule: Q03HX016 (ip), vehicle: saline) was 107 % of control, the T/C (endpoint: median survival time, dose: 128.0 mg/kg/injection, schedule: Q03HX024 (ip), vehicle: saline) was 86 % of control and the T/C (endpoint: median survival time, dose: 128.0 mg/kg/injection, schedule: Q04DX003 (ip), vehicle: saline) was 118 % of control. For the same compound, the T/C (endpoint: median survival time, dose: 128.0 mg/kg/injection, schedule: Q04DX003 (sc), vehicle: saline) was 109 % of control, the T/C (endpoint: median survival time, dose: 256.0 mg/kg/injection, schedule: Q01DX001 (ip), vehicle: saline) was 109 % of control and the T/C (endpoint: median survival time, dose: 256.0 mg/kg/injection, schedule: Q04DX003 (ip), vehicle: saline) was 118 % of control. For the same compound, the T/C (endpoint: median survival time, dose: 256.0 mg/kg/injection, schedule: Q08DX002 (ip), vehicle: saline) was 121 % of control, the T/C (endpoint: median survival time, dose: 512.0 mg/kg/injection, schedule: Q01DX001 (ip), vehicle: saline) was 111 % of control and the T/C (endpoint: median survival time, dose: 512.0 mg/kg/injection, schedule: Q04DX003 (sc), vehicle: saline) was 182 % of control. The T/C (endpoint: median survival time, dose: 1024.0 mg/kg/injection, schedule: Q04DX003 (ip), vehicle: saline) was 186 % of control, the T/C (endpoint: median survival time, dose: 1024.0 mg/kg/injection, schedule: Q04DX003 (sc), vehicle: saline) was 236 % of control and the T/C (endpoint: median survival time, dose: 1024.0 mg/kg/injection, schedule: Q08DX002 (ip), vehicle: saline) was 150 % of control.
`CCCCNC(=O)/C=C/C(=O)NCCCC` was tested, and the T/C (endpoint: mean survival time, dose: 100.0 mg/kg/injection, schedule: Q04DX003 (ip), vehicle: saline with Tween-80) was 100 % of control, the T/C (endpoint: mean survival time, dose: 200.0 mg/kg/injection, schedule: Q04DX003 (ip), vehicle: saline with Tween-80) was 100 % of control and the T/C (endpoint: mean survival time, dose: 400.0 mg/kg/injection, schedule: Q04DX003 (ip), vehicle: saline with Tween-80) was 100 % of control.
For `CCN(CC)CCC(=O)OC`, the T/C (endpoint: mean survival time, dose: 50.0 mg/kg/injection, schedule: Q01DX001 (ip), vehicle: saline) was 97 % of control, the T/C (endpoint: mean survival time, dose: 100.0 mg/kg/injection, schedule: Q01DX001 (ip), vehicle: saline) was 100 % of control and the T/C (endpoint: mean survival time, dose: 200.0 mg/kg/injection, schedule: Q01DX001 (ip), vehicle: saline) was 100 % of control. For the same compound, the T/C (endpoint: mean survival time, dose: 400.0 mg/kg/injection, schedule: Q01DX001 (ip), vehicle: saline) was 97 % of control.

From PubChem BioAssay AID248 (DTP/NCI, 2004)
